Target: T1, KCNQ 2/3 channels (HEK293 cells stably expressing human KCNQ2 and KCNQ3 subunits) (Homo sapiens, UniProt O43525+O43526)
T1 construct: expressed in transfected cells; host or cells: HEK293
Experiment: KCNQ2/3 channel activation, thallium flux FLIPR assay with BTC-AM dye
Format: cell-based
Conditions: for Emax: HEK293, maximum response relative to the response produced by 10 μM retigabine (set at 100%), read-out: Max. %; for EC50: HEK293 cells expressing human KCNQ2 and KCNQ3, thallium flux, FLIPR
Summary of the method: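 HEK293 cells stably expressing human KCNQ2/KCNQ3 were loaded with BTC-AM (3 μg/mL, 2 h, RT) and preincubated with compound for 4 min in pH 7.3 gluconate buffer containing 0.1 mM ouabain. Flux was triggered by 6 mM TlNO3/10 mM K2SO4 and read for 3 min; EC50 came from summed responses over basal, with maximum relative to 10 μM retigabine (100%).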

| Compound | Emax [%] | EC50 [µM] |
| --- | --- | --- |
| O=C(CC(F)(F)F)Nn1nc(-c2ccc(Cl)cc2)c2ccccc2c1=O [Example 124, N-[4-(4-chlorophenyl)-1-oxophthalazin-2(1H)-yl]-3,3,3-trifluoropropanamide] | 33 | 1 to 10 |
| O=C(CSC12CC3CC(CC(C3)C1)C2)Nn1nc(-c2ccccc2)c2ccccc2c1=O [Example 193, 2-(adamantan-1-ylthio)-N-(1-oxo-4-phenylphthalazin-2(1H)-yl)acetamide] | 161 | 0.1 to 0.5 |
| O=C(Cc1ccc(Cl)cc1)Nn1nc(-c2cccc(Cl)c2)c2ccccc2c1=O [Example 127, 2-(4-chlorophenyl)-N-[4-(3-chlorophenyl)-1-oxophthalazin-2(1H)-yl]acetamide] | 101 | 0.1 to 0.5 |
| O=C(C[C@@H]1C[C@@H]2C=C[C@H]1C2)Nn1nc(-c2ccc(F)cc2)c2ccccc2c1=O [Example 130, 2-[(1S,2S,4S)-bicyclo[2.2.1]hept-5-en-2-yl]-N-[4-(4-fluorophenyl)-1-oxophthalazin-2(1H)-yl]acetamide] | 156 | < 0.1 |
| COc1ccc(-c2nn(NC(=O)Cc3cc(F)cc(F)c3)c(=O)c3cc(Br)ccc23)cc1 [Example 177, N-[7-bromo-4-(4-methoxyphenyl)-1-oxophthalazin-2(1H)-yl]-2-(3,5-difluorophenyl)acetamide] | 48 | > 10 |
| CC(C)c1nn(NC(=O)CC23CC4CC(CC(C4)C2)C3)c(=O)c2ccccc12 [Example 6, 2-(1-adamantyl)-N-(4-isopropyl-1-oxophthalazin-2(1H)-yl)acetamide] | 200 | < 0.1 |
| O=C(CC1CC2CCC1C2)Nn1nc(-c2ccc(F)cc2)c2ccccc2c1=O (racemic) [Example 131, (±)-2-(exo-bicyclo[2.2.1]hept-2-yl)-N-[4-(4-fluorophenyl)-1-oxophthalazin-2(1H)-yl]acetamide] | 150 | < 0.1 |
| CC(C)(C)c1nn(NC(=O)CC2CCCC2)c(=O)c2ccccc12 [Example 62, N-(4-tert-butyl-1-oxophthalazin-2(1H)-yl)-2-cyclopentylacetamide] | 149 | < 0.1 |
| COc1ccc(-c2nn(NC(=O)CC3CC4CCC3C4)c(=O)c3ccccc23)cc1 (racemic) [Example 151, (±)-2-(exo-bicyclo[2.2.1]hept-2-yl)-N-[4-(4-methoxyphenyl)-1-oxophthalazin-2(1H)-yl]acetamide] | 141 | < 0.1 |
| O=C(Cc1ccc(C(F)(F)F)cc1)Nn1nc(-c2ccc(Cl)cc2)c2ccccc2c1=O [Example 99, N-[4-(4-chlorophenyl)-1-oxophthalazin-2(1H)-yl]-2-[4-(trifluoromethyl)phenyl]acetamide] | 81 | 0.5 to 1 |
| O=C(CC12CC3CC(CC(C3)C1)C2)Nn1nc(C2CC2)c2ccccc2c1=O [Example 24, 2-(1-adamantyl)-N-(4-cyclopropyl-1-oxophthalazin-2(1H)-yl)acetamide] | 235 | < 0.1 |
| O=C(Nn1nc(C(F)(F)F)c2ccccc2c1=O)C(F)(F)c1ccccc1 [Example 44, 2,2-difluoro-N-[1-oxo-4-(trifluoromethyl)phthalazin-2(1H)-yl]-2-phenylacetamide] | 35 | > 10 |
| O=C(Cc1ccc2ccccc2c1)Nn1nc(-c2ccc(Cl)cc2)c2ccccc2c1=O [Example 121, N-[4-(4-chlorophenyl)-1-oxophthalazin-2(1H)-yl]-2-(2-naphthyl)acetamide] | 201 | 1 to 10 |
| O=C(CC1CCCC1)Nn1nc(C(F)(F)F)c2ccccc2c1=O [Example 43, 2-cyclopentyl-N-[1-oxo-4-(trifluoromethyl)phthalazin-2(1H)-yl]acetamide] | 112 | 0.1 to 0.5 |
| O=C(Cc1cc(F)cc(F)c1)Nn1nc(-c2ccccc2)c2ccsc2c1=O [Example 33, 2-(3,5-difluorophenyl)-N-(7-oxo-4-phenylthieno[2,3-d]pyridazin-6(7H)-yl)acetamide] | 140 | 1 to 10 |
| O=C(Cc1cc(F)ccc1F)Nn1nc(-c2ccccc2)c2ccccc2c1=O [Example 27, 2-(2,5-difluorophenyl)-N-(1-oxo-4-phenylphthalazin-2(1H)-yl)acetamide] | 92 | 0.5 to 1 |
| CSCC(=O)Nn1nc(C(F)(F)F)c2ccccc2c1=O [Example 191, 2-(methylthio)-N-[1-oxo-4-(trifluoromethyl)phthalazin-2(1H)-yl]acetamide] | 25 | > 10 |
| COc1ccc(-c2nn(NC(=O)CC34CC5CC(CC(C5)C3)C4)c(=O)c3cc(Br)ccc23)cc1 [Example 174, 2-(adamantan-1-yl)-N-[7-bromo-4-(4-methoxyphenyl)-1-oxophthalazin-2(1H)-yl]acetamide] | 20 | > 10 |
| CS(=O)(=O)c1ccc(CC(=O)Nn2nc(-c3ccc(Cl)cc3)c3ccccc3c2=O)cc1 [Example 111, N-[4-(4-chlorophenyl)-1-oxophthalazin-2(1H)-yl]-2-[4-(methylsulfonyl)phenyl]acetamide] | 25 | > 10 |
| O=C(Cc1ccc(F)cc1)Nn1nc(-c2ccccc2)c2ccccc2c1=O [Example 26, 2-(4-fluorophenyl)-N-(1-oxo-4-phenylphthalazin-2(1H)-yl)acetamide] | 157 | 0.1 to 0.5 |
| Cc1nn(NC(=O)Cc2cc(F)cc(F)c2)c(=O)c2ccccc12 [Example 38, 2-(3,5-difluorophenyl)-N-(4-methyl-1-oxophthalazin-2(1H)-yl)acetamide] | 126 | > 10 |
| Cc1ccc(-c2nn(NC(=O)Cc3cc(F)cc(F)c3)c(=O)c3ccccc23)cc1C [Example 166, 2-(3,5-difluorophenyl)-N-[4-(3,4-dimethylphenyl)-1-oxophthalazin-2(1H)-yl]acetamide] | 161 | 0.1 to 0.5 |
| O=C(CC12CC3CC(CC(Br)(C3)C1)C2)Nn1nc(-c2ccccc2)c2ccsc2c1=O [Example 178, 2-(3-bromoadamantan-1-yl)-N-(7-oxo-4-phenylthieno[2,3-d]pyridazin-6(7H)-yl)acetamide] | 56 | > 10 |

The next lines start with the values.

| Emax [%] | EC50 [µM] | Compound |
| --- | --- | --- |
| 117 | 0.1 to 0.5 | CC(C)(CC(=O)Nn1nc(-c2ccc(Br)cc2)c2ccccc2c1=O)c1ccccc1 [Example 85, N-[4-(4-bromophenyl)-1-oxophthalazin-2(1H)-yl]-3-methyl-3-phenylbutanamide] |
| 134 | < 0.1 | O=C(C[C@H]1C[C@@H]2CC[C@H]1C2)Nn1nc(-c2ccc(Br)cc2)c2ccccc2c1=O (racemic) [Example 84, (±)-2-(exo-bicyclo[2.2.1]heptan-2-yl)-N-[4-(4-bromophenyl)-1-oxophthalazin-2(1H)-yl]acetamide] |
| 177 | < 0.1 | Cc1ccc(-c2nn(NC(=O)CC3CC4CCC3C4)c(=O)c3ccccc23)cc1C (racemic) [Example 163, (±)-2-(exo-bicyclo[2.2.1]hept-2-yl)-N-[4-(3,4-dimethylphenyl)-1-oxophthalazin-2(1H)-yl]acetamide] |
| 145 | 0.1 to 0.5 | Cc1ccc(-c2nn(NC(=O)Cc3ccc(Cl)cc3)c(=O)c3ccccc23)c(C)c1 [Example 161, 2-(4-chlorophenyl)-N-[4-(2,4-dimethylphenyl)-1-oxophthalazin-2(1H)-yl]acetamide] |
| 164 | 0.1 to 0.5 | Cc1ccc(-c2nn(NC(=O)Cc3cc(F)cc(F)c3)c(=O)c3ccccc23)c(C)c1 [Example 162, 2-(3,5-difluorophenyl)-N-[4-(2,4-dimethylphenyl)-1-oxophthalazin-2(1H)-yl]acetamide] |
| 133 | < 0.1 | O=C(CC12CC3CC(CC(C3)C1)C2)Nn1nc(-c2ccc(C(F)(F)F)cc2)c2ccccc2c1=O [Example 149, 2-(adamantan-1-yl)-N-{1-oxo-4-[4-(trifluoromethyl)phenyl]phthalazin-2(1H)-yl}acetamide] |
| 11 | > 10 | O=C(CC1(c2ccc(Cl)cc2)CC1)Nn1nc(C(F)(F)F)c2ccccc2c1=O [Example 39, 2-[1-(4-chlorophenyl)cyclopropyl]-N-[1-oxo-4-(trifluoromethyl)phthalazin-2(1H)-yl]acetamide] |
| 166 | < 0.1 | O=C(C[C@@H]1C[C@@H]2C=C[C@H]1C2)Nn1nc(C2CCC2)c2ccccc2c1=O [Example 67, 2-[(1S,2S,4S)-bicyclo[2.2.1]hept-5-en-2-yl]-N-(4-cyclobutyl-1-oxophthalazin-2(1H)-yl)acetamide] |
| 46 | 1 to 10 | O=C(Cc1ccc(F)cc1)Nn1nc(-c2ccccc2)c2ccsc2c1=O [Example 32, 2-(4-fluorophenyl)-N-(7-oxo-4-phenylthieno[2,3-d]pyridazin-6(7H)-yl)acetamide] |
| 153 | 0.1 to 0.5 | O=C(CC12CC3CC(CC(C3)C1)C2)Nn1nc(-c2cccc(Cl)c2)c2ccccc2c1=O [Example 126, 2-(adamantan-1-yl)-N-[4-(3-chlorophenyl)-1-oxophthalazin-2(1H)-yl]acetamide] |
| 77 | 1 to 10 | CC(C)(C)CC(=O)Nn1nc(C(F)(F)F)c2ccccc2c1=O [Example 48, 3,3-dimethyl-N-[1-oxo-4-(trifluoromethyl)phthalazin-2(1H)-yl]butanamide] |
| 179 | 1 to 10 | O=C(Cc1cc(F)cc(F)c1)Nn1nc(-c2ccccc2)c2sccc2c1=O [Example 10, 2-(3,5-difluorophenyl)-N-(4-oxo-7-phenylthieno[2,3-d]pyridazin-5(4H)-yl)acetamide] |
| 128 | < 0.1 | O=C(Cc1cc(F)cc(F)c1)Nn1nc(-c2ccc(Cl)cc2)c2ccccc2c1=O [Example 118, N-[4-(4-chlorophenyl)-1-oxophthalazin-2(1H)-yl]-2-(3,5-difluorophenyl)acetamide] |

— US8629143B2, “Potassium channel modulators” (AbbVie Inc., priority 2009, dated 2014)
